Laboratory results published in PMC11277932, “Australian Marine and Terrestrial Streptomyces-Derived Surugamides, and Synthetic Analogs, and Their Ability to Inhibit Dirofilaria immitis (Heartworm) Motility” (Marine Drugs, 2024).
Converted amounts (≈) assume the structure as drawn. Square brackets hold non-standard residues; d marks the D form. Peptide text beside a SMILES is read from it. * marks the point of attachment. d(aIle) = CC[C@H](C)[C@@H](N)C(=O)O; hArg = N=C(N)NCCCC[C@H](N)C(=O)O; Lys(Me) = CNCCCC[C@H](N)C(=O)O; Lauroyl = CCCCCCCCCCCC(=O)*; Pyruvoyl = CC(=O)C(=O)*; Pentanoyl = CCCCC(=O)*; Propionyl = CCC(=O)*; Bz = O=C(c1ccccc1)*; For = O=C*

Experiments:
[1] = system: Dirofilaria immitis microfilariae; details: pure compounds; ~72 h
[2] = system: Haemonchus contortus L1–L3 larvae; details: pure compounds; four days
[3] = system: Staphylococcus aureus; parameters: method as in PMID 24713874; details: cited from earlier work
[4] = system: Erwinia amylovora; parameters: method as in PMID 24317473; details: at 25 μM; cited from earlier work
[5] = system: human colorectal (SW620) carcinoma cells; details: MTT
[6] = system: human colorectal (SW620) carcinoma cells; assay: cells; details: SW-620, read-out: Human Colorectal Carcinoma Cells (SW620) IC50
[7] = system: Dirofilaria immitis microfilariae; assay: microbe, parasite or virus in culture; details: 72 h, read-out: D. immitis mf Motility EC50, ~72 h
[8] = system: Haemonchus contortus L1–L3 larvae; assay: microbe, parasite or virus in culture; details: 96 h, read-out: H. contortus L1–L3 Larvae Development EC50

SMILES | D. immitis mf Motility EC50 [1] [µg/mL] | H. contortus L1–L3 Larvae Development EC50 [2] [µg/mL] | Staphylococcus aureus MIC [3] [µM] | inhibition of Erwinia amylovora [4] [%] | Human Colorectal Carcinoma Cells (SW620) IC50 [5] [µg/mL] | IC50 [6] [µg/mL] | EC50 [7] [µg/mL] | EC50 [8] [µg/mL]
CC[C@@H](C)[C@H]1NC(=O)[C@H]([C@@H](C)CC)NC(=O)[C@@H](C)NC(=O)[C@H]([C@@H](C)CC)NC(=O)[C@@H](CC(C)C)NC(=O)[C@@H](Cc2ccccc2)NC(=O)[C@H]([C@@H](C)CC)NC(=O)[C@H](CCCCN)NC1=O [surugamide S1 (9), cyclo[-L-Ile^1-D-Ile^2-L-Lys^3-L-Ile^4-D-Phe^5-D-Leu^6-L-Ile^7-D-Ala^8-]] (cyclo(I[dI]KI[dF][dL]I[dA])) | >25 | >25 |  |  |  |  |  | 
CC[C@H](C)[C@@H]1NC(=O)[C@H](CCCCN)NC(=O)[C@@H]([C@@H](C)CC)NC(=O)[C@H]([C@@H](C)CC)NC(=O)[C@@H](C)NC(=O)[C@H]([C@@H](C)CC)NC(=O)[C@@H](CC(C)C)NC(=O)[C@@H](Cc2ccccc2)NC1=O [surugamide A (3), surugamide A] (cyclo(I[d(aIle)]KI[dF][dL]I[dA])) | >25 | >25 | 10 | 40 | >30 |  |  | 
CC[C@H](C)[C@@H]1NC(=O)[C@H](C)NC(=O)[C@@H]([C@@H](C)CC)NC(=O)[C@H]([C@@H](C)CC)NC(=O)[C@@H](C)NC(=O)[C@H]([C@@H](C)CC)NC(=O)[C@@H](CC(C)C)NC(=O)[C@@H](Cc2ccccc2)NC1=O [surugamide S3 (11), surugamide S3] (cyclo(I[d(aIle)]AI[dF][dL]I[dA])) | > 25 | >25 |  |  |  |  |  | 
CC[C@H](C)[C@@H]1NC(=O)[C@H](CCCNC(=N)N)NC(=O)[C@@H]([C@@H](C)CC)NC(=O)[C@H]([C@@H](C)CC)NC(=O)[C@@H](C)NC(=O)[C@H]([C@@H](C)CC)NC(=O)[C@@H](CC(C)C)NC(=O)[C@@H](Cc2ccccc2)NC1=O [surugamide S2 (10), surugamide S2] (cyclo(I[d(aIle)]RI[dF][dL]I[dA])) | > 25 | >25 |  |  |  |  |  | 
CCCC[C@H]1C(=O)O[C@H](C)[C@H](NC(=O)c2cccc(NC=O)c2O)C(=O)O[C@@H](C)[C@@H]1OC(=O)C(C)C [antimycin A4a (1), antimycin A4a] |  |  |  |  |  | 0.061 (≈ 0.12 µM) | 0.0013 to 0.0021 (≈ 0.00257 to 0.00415 µM) | 3.5 (≈ 6.91 µM)
CCC(=O)NCCCC[C@@H]1NC(=O)[C@@H]([C@@H](C)CC)NC(=O)[C@H]([C@@H](C)CC)NC(=O)[C@@H](C)NC(=O)[C@H]([C@@H](C)CC)NC(=O)[C@@H](CC(C)C)NC(=O)[C@@H](Cc2ccccc2)NC(=O)[C@H]([C@@H](C)CC)NC1=O [acyl-surugamide A3 (7), acyl-surugamide A3] (cyclo(I[d(aIle)]K(Propionyl)I[dF][dL]I[dA])) | 3.3 | >25 |  |  | > 30 |  |  | 
CC[C@H](C)[C@@H]1NC(=O)[C@H](CCCCNC(=O)C(C)=O)NC(=O)[C@@H]([C@@H](C)CC)NC(=O)[C@H]([C@@H](C)CC)NC(=O)[C@@H](C)NC(=O)[C@H]([C@@H](C)CC)NC(=O)[C@@H](CC(C)C)NC(=O)[C@@H](Cc2ccccc2)NC1=O [acyl-surugamide A4 (8), acyl-surugamide A4] (cyclo(I[d(aIle)]K(Pyruvoyl)I[dF][dL]I[dA])) | 16.0 | >25 |  |  | >30 |  |  | 
CC[C@H](C)[C@@H]1NC(=O)[C@H](CCCCNC(=N)N)NC(=O)[C@@H]([C@@H](C)CC)NC(=O)[C@H]([C@@H](C)CC)NC(=O)[C@@H](C)NC(=O)[C@H]([C@@H](C)CC)NC(=O)[C@@H](CC(C)C)NC(=O)[C@@H](Cc2ccccc2)NC1=O [surugamide S4 (12), surugamide S4] (cyclo(I[d(aIle)][hArg]I[dF][dL]I[dA])) | >25 | >25 |  |  |  |  |  | 
CC[C@H](C)[C@@H]1NC(=O)[C@H](CCCCNC(C)=O)NC(=O)[C@@H]([C@@H](C)CC)NC(=O)[C@H]([C@@H](C)CC)NC(=O)[C@@H](C)NC(=O)[C@H]([C@@H](C)CC)NC(=O)[C@@H](CC(C)C)NC(=O)[C@@H](Cc2ccccc2)NC1=O [acyl-surugamide A2 (6), acyl-surugamide A2] (cyclo(I[d(aIle)]K(Ac)I[dF][dL]I[dA])) | >25 | >25 |  |  | >30 |  |  | 
CC[C@H](C)[C@@H]1NC(=O)[C@H](CCCCNC=O)NC(=O)[C@@H]([C@@H](C)CC)NC(=O)[C@H]([C@@H](C)CC)NC(=O)[C@@H](C)NC(=O)[C@H]([C@@H](C)CC)NC(=O)[C@@H](CC(C)C)NC(=O)[C@@H](Cc2ccccc2)NC1=O [acyl-surugamide A1 (5), acyl-surugamide A1] (cyclo(I[d(aIle)]K(For)I[dF][dL]I[dA])) | >25 | >25 |  |  | >30 |  |  | 
CCCCCCCCCCCC(=O)NCCCC[C@@H]1NC(=O)[C@@H]([C@@H](C)CC)NC(=O)[C@H]([C@@H](C)CC)NC(=O)[C@@H](C)NC(=O)[C@H]([C@@H](C)CC)NC(=O)[C@@H](CC(C)C)NC(=O)[C@@H](Cc2ccccc2)NC(=O)[C@H]([C@@H](C)CC)NC1=O [acyl-surugamide AS2 (14), acyl-surugamide AS2] (cyclo(I[d(aIle)]K(Lauroyl)I[dF][dL]I[dA])) | >25 | >25 |  |  | >30 |  |  | 
CC[C@H](C)[C@@H]1NC(=O)[C@H](CCCCNC(=O)c2ccccc2)NC(=O)[C@@H]([C@@H](C)CC)NC(=O)[C@H]([C@@H](C)CC)NC(=O)[C@@H](C)NC(=O)[C@H]([C@@H](C)CC)NC(=O)[C@@H](CC(C)C)NC(=O)[C@@H](Cc2ccccc2)NC1=O [acyl-surugamide AS3 (15), acyl-surugamide AS3] (cyclo(I[d(aIle)]K(Bz)I[dF][dL]I[dA])) | 3.4 | >25 |  |  | >30 |  |  | 
CCCCCC[C@H]1C(=O)O[C@H](C)[C@H](NC(=O)c2cccc(NC=O)c2O)C(=O)O[C@@H](C)[C@@H]1OC(=O)C(C)C [antimycin A2a (2), antimycin A2a] |  |  |  |  |  | 0.08 (≈ 0.15 µM) | 0.0013 to 0.0021 (≈ 0.00243 to 0.00393 µM) | 1.8 (≈ 3.37 µM)
CCCCC(=O)NCCCC[C@@H]1NC(=O)[C@@H]([C@@H](C)CC)NC(=O)[C@H]([C@@H](C)CC)NC(=O)[C@@H](C)NC(=O)[C@H]([C@@H](C)CC)NC(=O)[C@@H](CC(C)C)NC(=O)[C@@H](Cc2ccccc2)NC(=O)[C@H]([C@@H](C)CC)NC1=O [acyl-surugamide AS1 (13), acyl-surugamide AS1] (cyclo(I[d(aIle)]K(Pentanoyl)I[dF][dL]I[dA])) | 21 | >25 |  |  | >30 |  |  | 
CC[C@H](C)[C@@H]1NC(=O)[C@H](CCCCNC)NC(=O)[C@@H]([C@@H](C)CC)NC(=O)[C@H]([C@@H](C)CC)NC(=O)[C@@H](C)NC(=O)[C@H]([C@@H](C)CC)NC(=O)[C@@H](CC(C)C)NC(=O)[C@@H](Cc2ccccc2)NC1=O [surugamide K (4), surugamide K] (cyclo(I[d(aIle)][Lys(Me)]I[dF][dL]I[dA])) | >25 | >25 |  |  | >30 |  |  | 
